Results from US20110117588A1, “METHOD OF PREDICTING DRUG-INDUCED PHOSPHOLIPIDOSIS” (KYUSHU UNIVERSITY, NATIONAL UNIVERSITY CORPORATION, priority 2007, published 2011).
Where two headings read alike, the source gives them in different places. Values belong to the molecule of their own block, whether it stands above or below them.

Tests used:
NRK cells [1] = test: Intracellular and extracellular cathepsin D and cathepsin L levels by Western blotting; type: cell-based, rat
Protocol: In the case of cathepsin D (CTD), it is biosynthesized as an about 45 kDa proenzyme in rat cell (NRK), and processed in the acidic environment of lysosome to become an about 43 kDa mature enzyme.
Therefore, NRK cells were exposed to 0 (control), 5, 10, 20, 40 and 80 μM of AD for 24 hr, and lysosomal enzyme (CTD and cathepsin L (CTL)) levels in the cell and medium were measured by Western blotting using an antibody to these enzymes. To be specific, immunoprecipitates against anti-CTD antibody in cell lysate and medium or the cell lysate and medium for CTL were subjected to Western blot analysis using an anti-CTD antibody or anti-CTL antibody. […] Therefore, it was also shown that increased lysosomal enzyme in the medium was not caused by extracellular leakage due to cell damage and the like, but by selective extracellular secretion thereof.
(§1) On the other hand, CTL is biosynthesized as an about 39 kDa proenzyme, and converted to a 30 kDa single strand intermediate enzyme and a 23 kDa and 7 kDa double stranded mature enzyme during the process of intracellular transport. […] While CTD increased the enzyme activity in the medium in an AD dose-dependent manner, CTL caused no change. The reason therefor is considered to be the measurement of CTD activity at pH 4.0 where autocatalytic processing occurs, and the measurement of CTL activity at pH 6.0 where processing scarcely occurs.

NRK cells [2] = test: β-hexosaminidase activity in the medium after exposure of NRK cells
Description: On the other hand, the activity of lysosomal enzyme can be measured using an activity measurement method by known per se for each enzyme. For example, lysosomal enzyme can be quantified by contacting a sample with a substrate compound for a lysosomal enzyme, which emits fluorescence or develops color by an enzyme reaction, and measuring the intensity of the resulting fluorescence or developed color by a fluorometer, spectrophotometer and the like. For example, as a measurement method of β-hexosaminidase, β-galactosidase, β-glucuronidase or β-mannosidase, the method described in The EMBO Journal, 12: 5219-5223 (1993) can be mentioned, as a measurement method of cathepsin D, the method described in J. Biochem, 125: 1137-1143 (1999) can be mentioned, and as a measurement method of cathepsin B/L, the method described in Methods in Enzymology, 80: 535-561 (1981) can be mentioned.
Furthermore, the activity of β-hexosaminidase in the medium was measured by a conventional method.

NRK cells [3] = test: Localization of MPR in NRK cells by confocal laser microscope with antibody; conditions: 24 hr exposure, concentration at which localization altered
NRK cells [4] = system: NRK cells
NRK cells [5] = test: Swelling of late endosome/lysosome (LGP85 staining) and phospholipid accumulation (Nile Red) in NRK cells; type: cell-based, rat
Protocol: The cells were cultured in a DMEM medium supplemented with lipoprotein-deficient serum to 10% instead of normal fetal bovine serum, and morphological changes of lysosome and the presence or absence of phospholipid accumulation due to exposure to AD under the conditions free of extracellular supply of lipoprotein were examined.

NRK cells [6] = test: Intracellular LC3 level by Western blotting and confocal microscopy; type: cell-based; conditions: 20 μM; for LC3-II level: Western blot
Protocol: NRK cells were exposed to 20 μM of AD for 1, 3, 6, 12 and 24 hr, and the level of LC3 (microtuble-associated protein 1 light chain 3), which is an autophagy marker, in each cell was measured by Western blotting using an antibody to the protein. That is, cell lysate was subjected to Western blot analysis using an anti-LC3 antibody.
NRK cells were exposed to various PLIDs for 24 hr, and the intracellular level of LC3 was measured by western blotting.

NRK cells [7] = test: Extracellular and intracellular lysosomal enzyme activity after exposure of NRK cells; type: cell-based, rat; conditions: 24 hr
Protocol: NRK cells were exposed to 0 (solvent control), 5, 10, 20, 40 and 80 μM of AD for 24 hr, and lysosomal enzyme activities in the cell and medium were measured by a conventional method.
as §1

SMILES: Cl.N [NH4Cl, ammonium chloride]
ratio of intracellular cathepsin D proenzyme (NRK cells [1]; NRK cells, 24 hr, Western blot of cell lysate immunoprecipitate): the ratio of intracellular proenzyme increased | cathepsin D proenzyme in the medium (NRK cells [1]; NRK cells, 24 hr, Western blot of medium immunoprecipitate): the amount of proenzyme secreted in the medium increased | β-hex activity increase (NRK cells [2]; NRK cells, 24 hr exposure, concentration at which β-hexosaminidase activity in medium increased): >1000 µM | alteration of MPR localization (NRK cells [3]): >5 mM

SMILES: CCN(CC)CCO[C@H]1CC[C@@]2(C)C(=CC[C@@H]3[C@@H]2CC[C@]2(C)C(=O)CC[C@@H]32)C1 [U18666A]
β-hex activity increase (NRK cells [2]; rat, 24 h): 3 µg/mL | alteration of MPR localization (NRK cells [4]; rat, 24 h): 3 µg/mL

SMILES: CCCCc1oc2ccccc2c1C(=O)c1cc(I)c(OCCN(CC)CC)c(I)c1 [amiodarone]
CTL proenzyme in the medium (NRK cells [1]): only proenzyme increased in an AD dose-dependent manner | cathepsin D proenzyme in the medium (NRK cells [1]): only proenzyme increased in an AD dose-dependent manner | ratio of CTL mature enzyme in the cell (NRK cells [1]): decreased in an AD dose-dependent manner | ratio of CTL proenzyme in the cell (NRK cells [1]): the ratio of proenzyme increased | ratio of intracellular cathepsin D proenzyme (NRK cells [1]): increased in a dose-dependent manner | accumulation of phospholipid (NRK cells [5]; NRK cells in DMEM with 10% lipoprotein-deficient serum): accumulation of phospholipid was found at the site | late endosome/lysosome morphology (LGP85) (NRK cells [5]; NRK cells in DMEM with 10% lipoprotein-deficient serum, various concentrations, 24 hr): enlargement of late endosome/lysosome occurred in an AD dose-dependent manner | accumulation of phospholipid (Nile Red staining) (NRK cells [5]; NRK cells, 24 hr exposure): accumulation of phospholipid was found | late endosome/lysosome morphology (LGP85 antibody) (NRK cells [5]; NRK cells, 24 hr exposure): enlarged | granular staining with LC3 in the cell (NRK cells [6]; 1-24 hr, confocal laser microscope): increased in a time-dependent manner | LC3-II level (NRK cells [6]; 12 and 24 hr): remarkably increased | LC3-II level (NRK cells [6]; 3 hr): increased | β-hex activity increase (NRK cells [2]; rat, 24 h): >10 µM | activity of α-glucosidase (endoplasmic reticulum enzyme) (NRK cells [7]; 5-80 μM): changed only at 80 μM | intracellular lysosomal enzyme activity (NRK cells [7]; 5-80 μM): decreased | lysosomal enzyme activity in the medium (NRK cells [7]; 5-80 μM): increased in an AD dose-dependent manner | CTL activity in the medium (NRK cells [7]; 5-80 μM, measured at pH 6.0): changed only at 80 μM | intracellular CTL activity (NRK cells [7]; 5-80 μM, measured at pH 6.0): decreased in a dose-dependent manner | concentration showing cytotoxicity (NRK cells [7]): 80 µM | alteration of MPR localization (NRK cells [4]): altered | alteration of MPR localization (NRK cells [4]; rat, 24 h): >10 µM

SMILES: CC1(C)S[C@@H]2[C@H](NC(=O)[C@H](N)c3ccc(O)cc3)C(=O)N2[C@H]1C(=O)O [amoxicillin]
β-hex activity increase (NRK cells [2]): none | alteration of MPR localization (NRK cells [4]): none

SMILES: CC(=O)Oc1ccccc1C(=O)O [aspirin]
β-hex activity increase (NRK cells [2]): none | alteration of MPR localization (NRK cells [4]): none

SMILES: C[C@H](CS)C(=O)N1CCC[C@H]1C(=O)O [captopril]
β-hex activity increase (NRK cells [2]): none

SMILES: CCN(CC)CCCC(C)Nc1ccnc2cc(Cl)ccc12 (stereo not drawn) [chloroquine]
cathepsin D proenzyme in the medium (NRK cells [1]): the amount of proenzyme secreted in the medium increased | ratio of intracellular cathepsin D proenzyme (NRK cells [1]): the ratio of intracellular proenzyme increased | β-hex activity increase (NRK cells [2]; rat, 24 h): >5 µM | alteration of MPR localization (NRK cells [4]; rat, 24 h): >5 µM

SMILES: CN(C)CCCN1c2ccccc2Sc2ccc(Cl)cc21 [chlorpromazine]
β-hex activity increase (NRK cells [2]; rat, 24 h): 20 µM

SMILES: CC[C@H]1OC(=O)[C@H](C)[C@@H](O[C@H]2C[C@@](C)(OC)[C@@H](O)[C@H](C)O2)[C@H](C)[C@@H](O[C@@H]2O[C@H](C)C[C@H](N(C)C)[C@H]2O)[C@](C)(O)C[C@@H](C)C(=O)[C@H](C)[C@@H](O)[C@]1(C)O [erythromycin]
β-hex activity increase (NRK cells [2]; rat, 24 h): >400 µM

Continued, in another order:

β-hex activity increase (NRK cells [2]; rat, 24 h): >10 µM | alteration of MPR localization (NRK cells [4]; rat, 24 h): >20 µM
SMILES: O=C(CCCN1CCC(O)(c2ccc(Cl)cc2)CC1)c1ccc(F)cc1 [haloperidol]

β-hex activity increase (NRK cells [2]; rat, 24 h): >40 µM
SMILES: CN(C)CCCN1c2ccccc2CCc2ccccc21 [imipramine]

β-hex activity increase (NRK cells [2]; rat, 24 h): >20 µM | alteration of MPR localization (NRK cells [4]; rat, 24 h): 20 µM
SMILES: CNCCCC12CCC(c3ccccc31)c1ccccc12 [maprotiline]

β-hex activity increase (NRK cells [2]; rat, 24 h): 5 µM | alteration of MPR localization (NRK cells [4]; rat, 24 h): 2.5 µM
SMILES: C1CCC(C(CC2CCCCN2)C2CCCCC2)CC1 (stereo not drawn) [perhexiline]

β-hex activity increase (NRK cells [2]; rat, 24 h): 100 µM
SMILES: C=C[C@H]1C[N@@]2CC[C@H]1C[C@@H]2[C@@H](O)c1ccnc2ccc(OC)cc12 [quinidine]

β-hex activity increase (NRK cells [2]; rat, 24 h): >10 µM | alteration of MPR localization (NRK cells [4]; rat, 24 h): 10 µM
SMILES: CC/C(=C(\c1ccccc1)c1ccc(OCCN(C)C)cc1)c1ccccc1 [tamoxifen]

β-hex activity increase (NRK cells [2]; rat, 24 h): 10 µM | alteration of MPR localization (NRK cells [4]; rat, 24 h): 10 µM
SMILES: CSc1ccc2c(c1)N(CCC1CCCCN1C)c1ccccc1S2 (stereo not drawn) [thioridazine]

β-hex activity increase (NRK cells [2]; rat, 24 h): >2.5 µM | alteration of MPR localization (NRK cells [4]; rat, 24 h): >5 µM
SMILES: CCN(CC)CCOc1ccc2c(c1)C(=O)c1cc(OCCN(CC)CC)ccc1-2 [tilorone]
cathepsin D proenzyme in the medium (NRK cells [1]): the amount of proenzyme secreted in the medium increased | ratio of intracellular cathepsin D proenzyme (NRK cells [1]): the ratio of intracellular proenzyme increased
